Here are results for 3 compounds from patent publication US9296778B2, “3′,5′-cyclic phosphate prodrugs for HCV infection” (Idenix Pharmaceuticals, Inc., priority 2012, dated 2016).

Series [1] relates to HCV genotype 1b replicon. In words: HCV Replicon Assay. The format is cell-based. The following applies: Hepatitis C virus, 72 h, read-out: HCV Replicon EC50. The essentials: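 Zluc Huh-7 cells with HCV genotype 1b replicon and luciferase reporter treated with 5-fold dilutions (100 μM to 0.0000512 μM final) in duplicate, or at 1 and 10 μM. Luminescence read with ONE-glo; EC50 from dose-response fits, or % inhibition at the fixed concentrations.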
On the technique in general: A replicon is a self-replicating genome or part of one, used to study replication in cells.

The nature of series [2]: cytotoxicity evaluation (CellTiter-Blue Cell Viability Assay). As to conditions: human.
The target in series [3] is T1, cathepsin A (CatA) (Homo sapiens, UniProt P10619).
T1 construct: purchased R & D Systems (Minneapolis, Minn.)
T1 sequence (P10619 29-326 limits assumed): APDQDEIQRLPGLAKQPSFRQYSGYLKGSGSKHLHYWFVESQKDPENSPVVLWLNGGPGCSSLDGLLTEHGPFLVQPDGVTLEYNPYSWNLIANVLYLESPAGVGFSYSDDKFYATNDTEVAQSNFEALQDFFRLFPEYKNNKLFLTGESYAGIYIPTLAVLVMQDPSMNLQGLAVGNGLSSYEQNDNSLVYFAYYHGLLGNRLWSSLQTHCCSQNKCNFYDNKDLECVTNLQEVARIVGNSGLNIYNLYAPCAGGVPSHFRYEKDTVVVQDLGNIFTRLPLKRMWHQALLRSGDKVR
T1 sequence (P10619 327-480 limits assumed): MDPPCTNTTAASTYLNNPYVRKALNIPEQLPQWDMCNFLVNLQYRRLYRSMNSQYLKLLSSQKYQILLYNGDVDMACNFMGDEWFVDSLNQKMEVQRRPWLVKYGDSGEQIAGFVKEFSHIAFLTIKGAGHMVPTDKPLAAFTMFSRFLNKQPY
Nature of the series: CatA hydrolysis assay. The format is in vitro ADME. As to conditions: for CatA hydrolysis: 100 μM compound, 37° C., 18 h. The protocol: CatA, cathepsin L (CatL) and CES1 were purchased from R & D Systems (Minneapolis, Minn.). Prior to the enzymatic hydrolysis reactions, CatA was activated according to the manufacturer's instruction. Briefly, CatA (0.05 μg/μL) was incubated with CatL (0.005 μg/μL) for 30 min at 37° C. in 25 mM MES pH 6.0 containing 5 mM DTT. The reaction was stopped by addition of the CatL specific inhibitor E64 (10 μM).
The CatA assay was performed at 37° C. The reaction mixture contained 25 mM MES buffer pH 6.0, 100 mM NaCl, 4 mM DTT and 100 μM of the compound. The reaction was started by addition of the activated CatA enzyme to a final concentration of 0.005 μg/μL. One hundred-μL aliquots were taken after 0.5 min, 3 hrs and 18 hrs of incubation. Reactions were stopped by mixing the sample with an equal volume of ice-cold methanol, and were loaded on a HPLC for analysis.
(§1) Samples were analyzed by HPLC using 5μ C-18, 4.6×250 mm Phenomenex® Columbus column (Phenomenex USA, CA). The mobile phase consisted of buffer A (25 mM potassium phosphate with 5 mM tetrabutylammonium dihydrogen phosphate pH 6.3) and buffer B (100% methanol).

The target in series [4] is T2, carboxylesterase 1 (CES1) (Homo sapiens, UniProt P23141).
T2 construct: purchased R & D Systems (Minneapolis, Minn.)
T2 sequence (P23141 18-567): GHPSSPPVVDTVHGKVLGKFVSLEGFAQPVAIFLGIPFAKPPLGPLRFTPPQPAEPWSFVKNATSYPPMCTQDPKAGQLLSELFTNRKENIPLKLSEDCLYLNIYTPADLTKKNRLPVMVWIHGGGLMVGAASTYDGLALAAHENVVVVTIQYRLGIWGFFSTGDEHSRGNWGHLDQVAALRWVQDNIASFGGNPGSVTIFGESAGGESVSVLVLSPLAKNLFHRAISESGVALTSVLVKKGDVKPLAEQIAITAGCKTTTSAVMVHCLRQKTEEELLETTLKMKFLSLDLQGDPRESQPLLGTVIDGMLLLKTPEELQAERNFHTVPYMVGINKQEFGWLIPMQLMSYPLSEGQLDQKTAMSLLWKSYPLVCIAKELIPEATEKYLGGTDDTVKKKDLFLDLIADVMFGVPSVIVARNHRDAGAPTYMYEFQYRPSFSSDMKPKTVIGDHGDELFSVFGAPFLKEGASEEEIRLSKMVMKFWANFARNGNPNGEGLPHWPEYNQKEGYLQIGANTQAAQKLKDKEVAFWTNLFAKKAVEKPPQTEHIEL
Nature of the series: CES1 hydrolysis assay. The format is in vitro ADME. The following applies: for CES1 hydrolysis: 100 μM compound, 37° C. As for the experimental part: CES1 assay was performed at 37° C. in the reaction mixture containing 50 mM Tris/HCl buffer pH 7.5 and 100 μM of the compound. Reaction was started by addition of the CES1 to the final concentration 0.01 μg/mL. 100 μL aliquots were taken after 0.5 min, 3 hrs and 21 hrs of the incubation and the reaction was stopped by mixing with 100 μl of the ice-cold methanol prior to HPLC analysis.
as §1

Series [5] in a line: Liver TP (Table 5). Format: in vivo.
Series [6] relates to Huh-7 cells. Nature of the series: Release of active metabolite in Huh-7 cells. The format is in vitro ADME, human. The following applies: Huh-7 cells, AUC0-72. As for the experimental part:
Huh-7 cells were plated in 1 mL culture medium (DMEM, containing glucose, L-glutamine and sodium pyruvate, 10% FBS, 100 IU/mL penicillin, 100 μg/mL streptomycin, 2 mM GlutaMAX, 1% MEM non-essential amino acids) at the concentration 0.8, 0.4 and 0.2 million cells per well on 6 well plates for 24, 48 and 72 hr treatment, respectively. Plated cells were incubated overnight at 37° C. in an incubator.
The following morning compounds was diluted to 20 μM from a stock solution in DMSO in fresh culture medium pre-warmed to 37° C. and 1 mL of the solution/well was added to cells. A final medium volume per well was 2.0 mL, Compound concentration in well was 10 μM and final DMSO concentration was 0.1%.
After 24, 48 or 72 hr, the medium was carefully removed and cell monolayers were washed twice with 2 mL ice-cold PBS per well. Following the last wash, all PBS was carefully removed and 1.0 mL of extraction solution (ice-cold 70% methanol) added. The plate was tightly covered with Parafilm, plastic plate cover and Parafilm again and an intracellular content was extracted at −20° C. for 24 hr.
After 24 hr extracts were transferred into polypropylene microfuge tubes and dried on a refrigerated centrivap concentrator. Dry residues were reconstituted in 250 μL of HPLC-grade water and centrifuged at 16,000×g for 10 min. Aliquots (100 μL each) of the supernatants were transferred into a 96 well plate and internal standard (4 ng/mL final concentration) was added as the internal standard (IS) for LC-MS/MS analysis.

For series [7], the system named is genotype 1b HCV replicon. Nature of the series: genotype 1b HCV replicon-bearing Huh-7 cells (Table 5). The format is cell-based. An excerpt:
In vivo Z4 and Z2 appear to be effectively liver-targeted with a high liver:plasma ratio of drug metabolites. Both prodrugs are readily converted to the triphosphate (TP) metabolite in the liver of mice and monkey producing more TP than GS-7977. […] The in vitro antiviral inactivity of Z4 and Z2 is thought to reflect an inability of Huh-7 replicon cells to metabolize the prodrug moiety.

Each structure is given as a SMILES string. Where two headings read alike, the source gives them in different places.

The EC50 is the concentration at which the effect is half-maximal. What is called CC50 is the concentration giving 50% cytotoxicity. Turning to `CCOc1nc(N)nc2c1ncn2[C@@H]1O[C@@H]2COP(=O)(Oc3ccc(C[C@H](NC(=O)OC)C(=O)OC(C)C)cc3)O[C@H]2[C@@]1(C)F` (some centres unmarked) [Compound 13], in series [1], the EC50 is below 0.25 µM. The same compound yielded a CC50 in series [2] above 50 µM.
`CC(C)OC(=O)[C@H](C)N[P@@](=O)(OC[C@H]1O[C@@H](n2ccc(=O)[nH]c2=O)[C@](C)(F)[C@@H]1O)Oc1ccccc1` [PSI-7976] gave a CatA hydrolysis in series [3] of 10% @ 18 h. Further, the “hydrolysis by CES1 (in words)” value in series [4] is “preferentially hydrolyzed”. Further, the CES1 hydrolysis is on record as 56%/3 h; in series [4] (3 h) and 94%/21 h in series [4] (21 h). Besides, the “Liver TP” value in series [5] was 310 pmol·h/g. Also, in series [6], the “Huh-7 AUC0-72” value was determined as 6527 pmol * hr/10^6cells. The compound further came in with a half-maximal effective concentration (EC50) in series [7] of 2.08 µM.
As for `CC(C)OC(=O)[C@H](C)N[P@](=O)(OC[C@H]1O[C@@H](n2ccc(=O)[nH]c2=O)[C@](C)(F)[C@@H]1O)Oc1ccccc1` [GS-7977], the “hydrolysis by CatA (in words)” value in series [3] is given as “hydrolyzed”. In addition, in series [3], the CatA hydrolysis came to 100% @ 18 h. Also, the “CatA cleavage efficiency relative to RP diastereoisomer” value in series [3] (GS-7977 (SP) versus its RP diastereoisomer) stood at 10 times. For the same compound, the “hydrolysis by CES1 (in words)” value in series [4] is “hydrolyzed”. For the same compound, the CES1 hydrolysis is on record as 12%/3 h; in series [4] (3 h) and 15%/21 h in series [4] (21 h). For the same compound, in series [6], the “Huh-7 AUC0-72” value was 63555 pmol * hr/10^6cells. Also, it took 0.25 µM to reach a half-maximal effect in series [7] (Hepatitis C virus) (EC50).
